Where two headings read alike, the source gives them in different places.
Key:
[1] = biological target: c-Myc template DNA (c-myc quadruplex); test: Quadruplex binding / stop assay (Taq polymerase arrest, capillary electrophoresis)
HeLa cells = test: MTS cell proliferation and/or cytotoxicity assay; format: cell-based, Human
Procedure: Cell culture. Human cervical epithelial cells (HeLa cells) were obtained from American Type Culture Collection (Manassas, Va.). Cells were grown in Eagle's minimum essential medium (MEM, Hyclone, Utah) supplemented with 2 mM Glutamine, 0.1 mM nonessential amino acid, 1 mM Na Pyruvate, 1.5 g/L NaHCO3, 50 mg/L gentamicin, and 10% fetal bovine serum (Hyclone, USA) in a humidified atmosphere of 5% CO2 at 37° C.
MTS assays. Antiproliferative effects of the compounds were tested by the CellTiter 96 AQueous assay (Promega, WI), which is a calorimetric assay for determining the number of viable cells. (See, e.g., Wang, L., et al., Methods Cell Sci (1996) 18:249-255). In one example, cells (4,500 cells/well) were seeded on 96 well flat bottom plates (Corning, N.Y.) in 100 μl of culture medium without any anticancer drug on day 0, and the culture medium was exchanged for that //contained anticancer drugs at various concentrations on day 1. After incubation for 3 days under normal growth conditions (on day 4), the monolayers were washed once in PBS, and the medium was switched to 100 μl of PBS in each of the 96 well plate. After mixing MTS and PMS at the ratio of 20:1, 20 μl of MTS/PMS solution was added to each of the 96 well plate and incubated for 4 hours in a humidified atmosphere of 5% CO2 at 37° C. The absorbance was read at 490 nm using FLUOstar Galaxy 96 well plate reader (BMG Labtechnologies, Germany). μM concentrations (MTS data) reported in Table 1 are concentrations at which 50% of antiproliferative cell response is seen.

[2] = read-out: Stop Data c-Myc μM, concentration at which 50% of the DNA was arrested (arrested:full-length 1:1)
[3] = Homo sapiens, HeLa, 72 h, concentration at which 50% of antiproliferative cell response is seen, 3 days incubation, read-out: MTS Data Hella
[4] = read-out: S DATA, Table 1D, stop assay data
[5] = Homo sapiens, HeLa, HeLa cells, MTS, read-out: Hela MTS
[6] = concentration at which 50% of antiproliferative cell response is seen, 3 days incubation, read-out: MTS Data Hella

| SMILES | IC50 [1, 2] [µM] | IC50 [1, 4] [µM] | IC50 (HeLa cells; [3]) [nM] | IC50 (HeLa cells; [5]) [nM] | IC50 (HeLa cells; [6]) [nM] |
| --- | --- | --- | --- | --- | --- |
| CN1CCN(CCC(=O)N[C@@H]2CCN(c3c(F)cc4c(=O)c(C(=O)NCCN5CCCC5)cn5c4c3Oc3cc4c(cc3-5)oc3ccccc34)C2)CC1 [compound 533] | 0.375 | – | 400 | – | – |
| CN(C)CCCCNC(=O)c1cn2c3c(c(N4CCC(N)C4)c(F)cc3c1=O)Oc1cc3c(cc1-2)Cc1ccccc1-3 (centres unmarked) [compound 532] | 0.375 | – | 440 | – | – |
| CN1CCCC1CCNC(=O)c1cn2c3c(c(NCCc4ccc(O)cc4)c(F)cc3c1=O)Oc1cc3ccccc3cc1-2 (centres unmarked) [compound 378] | 0.75 | – | 2100 | – | – |
| C[C@@H](O)CNc1c(F)cc2c(=O)c(C(=O)NCCC3CCCN3C)cn3c2c1Oc1cc2ccccc2cc1-3 (some centres unmarked) [compound 382] | 0.75 | – | 1800 | – | – |
| CN1CCCC1CCNC(=O)c1cn2c3c(c(NC[C@H]4CCCO4)c(F)cc3c1=O)Oc1cc3ccccc3cc1-2 (some centres unmarked) [compound 38] | 2.5 | – | – | – | 260 |
| CN(C)CCCCNC(=O)c1cn2c3cc4c(cc3oc3c(NCCCN5CCOCC5)c(F)cc(c1=O)c32)c(=O)c1ccccc14 [compound 519] | 0.375 | – | 2100 | – | – |
| CN1CCCC1CCNC(=O)c1cn2c3c(c(N4CCC(NC(=O)OC(C)(C)C)C4)c(F)cc3c1=O)Oc1cc3c(cc1-2)oc1ccccc13 (centres unmarked) [compound 389] | 0.75 | – | 290 | – | – |
| CN1CCN(CCCNC(=O)c2cn3c4c(c(NCCN5CCCC5)c(F)cc4c2=O)Oc2cc4c(cc2-3)oc2ccccc24)CC1 [compound 365] | 0.75 | – | 3800 | – | – |
| CN1CCN(CCCNC(=O)c2cn3c4c(c(NCCC5CCCN5C)c(F)cc4c2=O)Oc2cc4c(cc2-3)oc2ccccc24)CC1 (centres unmarked) [compound 364] | 0.75 | – | 3800 | – | – |
| O=C(NCCN1CCCC1)c1cn2c3c(c(NCC4CCCO4)c(F)cc3c1=O)Oc1cc3ccccc3cc1-2 (centres unmarked) [compound 31] | 3 | – | 1400 | – | – |
| CN(C)CC(C)(C)CNC(=O)c1cn2c3c(c(N4CC5CCCNC5C4)c(F)cc3c1=O)Oc1cc3ccccc3cc1-2 (centres unmarked) [compound 493] | 0.44 | – | 400 | – | – |

Continued, in another order:

| IC50 [1, 2] [µM] | IC50 [1, 4] [µM] | SMILES | IC50 (HeLa cells; [3]) [nM] | IC50 (HeLa cells; [5]) [nM] | IC50 (HeLa cells; [6]) [nM] |
| --- | --- | --- | --- | --- | --- |
| – | 0.75 | CN1CCCC1CCNC(=O)c1cn2c3c(c(NCC4(O)CCCCC4)c(F)cc3c1=O)Oc1cc3ccccc3cc1-2 (centres unmarked) [compound 1665] | – | 240 | – |
| 0.18 | – | O=C(NCCN1CCCC1)c1cn2c3c(c(N4CC5CCCNC5C4)c(F)cc3c1=O)Oc1cc3ccccc3cc1-2 (centres unmarked) [compound 581] | – | – | 300 |
| 0.18 | – | N[C@H]1CCN(c2c(F)cc3c(=O)c(C(=O)NCCN4CCCC4)cn4c5cc6c(cc5oc2c34)c(=O)c2ccccc26)C1 [compound 583] | 250 | – | – |
| – | 0.375 | CN(C)CCCCNC(=O)c1cn2c3c(c(NCCN4CCCC4)ccc3c1=O)Oc1cc3ccccc3cc1-2 [compound 1520] | – | 200 | – |
| 0.18 | – | CN(C)CCCCNC(=O)c1cn2c3cc4c(cc3oc3c(NCCCCN(C)C)c(F)cc(c1=O)c32)c(=O)c1ccccc14 [compound 576] | 2100 | – | – |
| – | 0.85 | CN1CCC[C@H]1CCNC(=O)c1cn2c3c(c(N4CCC(c5cnccn5)C4)c(F)cc3c1=O)Oc1cc3ccccc3cc1-2 (some centres unmarked) [compound 1742] | – | 3300 | – |
| 0.25 | – | CN1CCCC1CCNC(=O)c1cn2c3c(c(N4CC[C@@H](N)C4)c(F)cc3c1=O)Oc1cc3ccccc3cc1-2 (some centres unmarked) [compound 564] | 290 | – | – |
| 0.1 | – | CN1CCCC1CCNC(=O)c1cn2c3cc4c(=O)c5ccccc5c(=O)c4cc3oc3c(NCCN4CCCC4)c(F)cc(c1=O)c32 (centres unmarked) [compound 592] | 3800 | – | – |
| 0.375 | – | CN1CCCC1CCNC(=O)c1cn2c3c(c(N4CCC(N)C4)c(F)cc3c1=O)Oc1cc3ccccc3cc1-2 (centres unmarked) [compound 540] | – | – | 270 |
| 0.375 | – | CC1(C)CC(NC(=O)c2cn3c4c(c(N5CCC(N)C5)c(F)cc4c2=O)Oc2cc4ccccc4cc2-3)CC(C)(C)N1 (centres unmarked) [compound 539] | 280 | – | – |
| 0.18 | – | CN1CCCC1CCNC(=O)c1cn2c3cc4oc5cc([N+](=O)[O-])ccc5[nH]c4cc3oc3c(NCCN4CCCC4)c(F)cc(c1=O)c32 (centres unmarked) [compound 570] | 6800 | – | – |

Source: patent US7507727B2, “Substituted quinobenzoxazine analogs and methods of using thereof” (Cylene Pharmaceuticals, Inc., priority 2003, dated 2009)
